Experimental data reported in PubChem BioAssay AID330 (DTP/NCI, 2004).
“And” between values parts separate entries of the source, which are not always exact repeats. Equal entries are not always repeated. Toxic doses and inconclusive results are not listed.

Test system: P388 leukemia ip, CD2F1 mice, survival T/C
Assay: NCI In Vivo Anticancer Drug Screen. Data for tumor model P388 Leukemia (intraperitoneal) in CD2F1 (CDF1) mice
Conditions: endpoint: median survival time, higher = longer survival
How it was run: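 Mice carrying the transplanted tumor received test compound or vehicle. Survival was recorded in each group, and the value is the treated-group measurement divided by that of the vehicle-treated control group.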

[1] = dose: 12.5 mg/kg/injection, schedule: Q01DX009 (ip), vehicle: Klucel (hydroxypropylcellulose) (HPC)
[2] = dose: 50.0 mg/kg/injection, schedule: Q01DX005 (ip), vehicle: Klucel (hydroxypropylcellulose) (HPC)
[3] = dose: 100.0 mg/kg/injection, schedule: Q01DX005 (ip), vehicle: Klucel (hydroxypropylcellulose) (HPC)

SC1(S)CN2CCC1CC2
T/C (dose: 6.25 mg/kg/injection, schedule: Q01DX009 (ip), vehicle: saline): 104 % of control
T/C (dose: 12.5 mg/kg/injection, schedule: Q01DX009 (ip), vehicle: saline): 100 % of control

COc1c(C=O)c2c(c(OC)c1OC)-c1ccc(OC)c(=O)cc1[C@@H](NC(C)=O)CC2
T/C (dose: 0.39 mg/kg/injection, schedule: Q01DX009 (ip), vehicle: Klucel (hydroxypropylcellulose) (HPC)): 151 % of control
T/C (dose: 0.78 mg/kg/injection, schedule: Q01DX009 (ip), vehicle: Klucel (hydroxypropylcellulose) (HPC)): 154 % of control
T/C (dose: 1.56 mg/kg/injection, schedule: Q01DX009 (ip), vehicle: Klucel (hydroxypropylcellulose) (HPC)): 160 % of control and 175 % of control
T/C (dose: 3.12 mg/kg/injection, schedule: Q01DX009 (ip), vehicle: Klucel (hydroxypropylcellulose) (HPC)): 180 % of control and 194 % of control
T/C (dose: 6.25 mg/kg/injection, schedule: Q01DX009 (ip), vehicle: Klucel (hydroxypropylcellulose) (HPC)): 205 % of control
T/C [1]: 102 % of control

O=C1C=C(NCCNCCO)C(=O)c2ccccc21
T/C (dose: 6.25 mg/kg/injection, schedule: Q01DX009 (ip), vehicle: distilled water + Tween-80): 96 % of control
T/C (dose: 12.5 mg/kg/injection, schedule: Q01DX009 (ip), vehicle: distilled water + Tween-80): 98 % of control and 95 % of control
T/C (dose: 25.0 mg/kg/injection, schedule: Q01DX009 (ip), vehicle: distilled water + Tween-80): 109 % of control and 95 % of control
T/C (dose: 50.0 mg/kg/injection, schedule: Q01DX009 (ip), vehicle: distilled water + Tween-80): 111 % of control and 94 % of control
T/C (dose: 100.0 mg/kg/injection, schedule: Q01DX009 (ip), vehicle: distilled water + Tween-80): 88 % of control and 97 % of control

Fc1ccc(CN2COc3c(cc(Cl)c4cccnc34)C2)cc1
T/C (dose: 100.0 mg/kg/injection, schedule: Q04DX003 (ip), vehicle: Klucel (hydroxypropylcellulose) (HPC)): 102 % of control
T/C (dose: 200.0 mg/kg/injection, schedule: Q04DX003 (ip), vehicle: Klucel (hydroxypropylcellulose) (HPC)): 100 % of control
T/C (dose: 400.0 mg/kg/injection, schedule: Q04DX003 (ip), vehicle: Klucel (hydroxypropylcellulose) (HPC)): 110 % of control

Cc1cccc(C2N=C3Oc4ccccc4C=C3C(=O)N2)c1 (centres undefined)
T/C (dose: 6.25 mg/kg/injection, schedule: Q01DX005 (ip), vehicle: Klucel (hydroxypropylcellulose) (HPC)): 96 % of control
T/C (dose: 12.5 mg/kg/injection, schedule: Q01DX005 (ip), vehicle: Klucel (hydroxypropylcellulose) (HPC)): 95 % of control
T/C (dose: 25.0 mg/kg/injection, schedule: Q01DX005 (ip), vehicle: Klucel (hydroxypropylcellulose) (HPC)): 96 % of control
T/C [2]: 99 % of control
T/C [3]: 105 % of control

CCCCCOC(=O)c1ccccc1N
T/C [1]: 105 % of control
T/C (dose: 25.0 mg/kg/injection, schedule: Q01DX009 (ip), vehicle: Klucel (hydroxypropylcellulose) (HPC)): 104 % of control
T/C (dose: 50.0 mg/kg/injection, schedule: Q01DX009 (ip), vehicle: Klucel (hydroxypropylcellulose) (HPC)): 102 % of control and 103 % of control
T/C (dose: 100.0 mg/kg/injection, schedule: Q01DX009 (ip), vehicle: Klucel (hydroxypropylcellulose) (HPC)): 91 % of control

CCOC(=O)CCC[P+](c1ccccc1)(c1ccccc1)c1ccccc1
T/C (dose: 5.33 mg/kg/injection, schedule: Q01DX009 (ip), vehicle: saline with Tween-80): 109 % of control
T/C (dose: 8.0 mg/kg/injection, schedule: Q01DX009 (ip), vehicle: saline with Tween-80): 118 % of control
T/C (dose: 12.0 mg/kg/injection, schedule: Q01DX009 (ip), vehicle: saline with Tween-80): 109 % of control

Nc1cccc(CCCCc2cccc(S(=O)(=O)F)c2)c1
T/C (dose: 50.0 mg/kg/injection, schedule: Q01DX009 (ip), vehicle: saline sonified): 100 % of control
T/C (dose: 100.0 mg/kg/injection, schedule: Q01DX009 (ip), vehicle: saline sonified): 109 % of control
T/C (dose: 200.0 mg/kg/injection, schedule: Q01DX009 (ip), vehicle: saline sonified): 109 % of control

CC1=C(Br)C(c2ccccc2)=Nc2ccccc2N1
T/C (dose: 12.5 mg/kg/injection, schedule: Q01DX009 (ip), vehicle: saline with Tween-80): 123 % of control
T/C (dose: 25.0 mg/kg/injection, schedule: Q01DX009 (ip), vehicle: saline with Tween-80): 116 % of control
T/C (dose: 50.0 mg/kg/injection, schedule: Q01DX009 (ip), vehicle: saline): 119 % of control
T/C (dose: 100.0 mg/kg/injection, schedule: Q01DX009 (ip), vehicle: saline): 110 % of control

CC(=O)C(Cl)C(=O)c1c(-c2ccccc2)[nH]c2ccccc12 (centres undefined)
T/C (dose: 100.0 mg/kg/injection, schedule: Q01DX001 (ip), vehicle: Klucel (hydroxypropylcellulose) (HPC)): 100 % of control
T/C (dose: 200.0 mg/kg/injection, schedule: Q01DX001 (ip), vehicle: Klucel (hydroxypropylcellulose) (HPC)): 102 % of control
T/C (dose: 400.0 mg/kg/injection, schedule: Q01DX001 (ip), vehicle: Klucel (hydroxypropylcellulose) (HPC)): 105 % of control

C=CC(=O)NC(O)C(Cl)(Cl)Cl (centres undefined)
T/C [2]: 98 % of control
T/C [3]: 98 % of control
T/C (dose: 200.0 mg/kg/injection, schedule: Q01DX005 (ip), vehicle: Klucel (hydroxypropylcellulose) (HPC)): 102 % of control

O=c1[nH]c(=O)n(C2CC(O)C(CO)O2)cc1N1CCOCC1 (centres undefined)
T/C (dose: 50.0 mg/kg/injection, schedule: Q01DX005 (ip), vehicle: saline): 108 % of control
T/C (dose: 100.0 mg/kg/injection, schedule: Q01DX005 (ip), vehicle: saline): 101 % of control
T/C (dose: 200.0 mg/kg/injection, schedule: Q01DX005 (ip), vehicle: saline): 108 % of control
